According to patent US12448383B2, “Compounds and methods for treatment of viral infections” (priority 2022, dated 2025):
Where two headings read alike, the source gives them in different places.

What was measured:
[1] = tested on: Respiratory syncytial virus recombinant with luciferase (RSV-Luc5) in Normal Human Bronchial Epithelial (NHBE) cells; experiment: microbe, parasite or virus in culture; type: cell-based
Plasma stability = type: in vitro ADME; parameters: unit not given here; settings: 37° C., 2 μM substrate
In short: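 LC-MS (Q-Exactive, 5 ppm tolerance, 0.1% formic acid water/acetonitrile gradient) quantified compound in quenched aliquots. Aliquots were taken at 0.05, 0.5, 1, 2, 3 and 4 hr and quenched with internal-standard solution, and supernatants were diluted with water after centrifugation.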

[2] = tested on: Respiratory syncytial virus recombinant with luciferase (RSV-Luc5) in HEp-2 cells; experiment: microbe, parasite or virus in culture; type: cell-based; settings: human respiratory syncytial virus
[3] = Stability in pH2 buffered solution; type: physicochemical; settings: pH2 phosphate buffer, 40° C., 24 h; Table N2
In short: (§1)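 UPLC % area-normalized compound peak tracked over 24 hrs at 40° C. (0, 3, 6, 9, 12 and 24 hrs). Samples at 50 μg/mL, prepared from 1 mg/mL acetonitrile stock, in pH2 or pH7 50 mM phosphate/150 mM NaCl buffer.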

GI S9 stability = type: in vitro ADME
Procedure: Example G: GI S9 Stability
Duplicate aliquots of test compound or positive control substrate (GS-7340) were added to S9 stock diluted with 100 mM phosphate buffered saline, pH 7.4, to obtain a protein concentration of 1.0 mg/mL. The S9 metabolic reactions were initiated by the addition of the substrates to the S9 reaction mixture to a final concentration of 2 μM. At 0, 10, 20, 30, 60 and 120 min, […] aliquots of the reaction mixture were transferred to plates containing […] of IS/Q solution. After quenching, the plates were centrifuged at 3000 g for 30 minutes, and 150 μL aliquots of each supernatant were diluted with 150 μL water. Aliquots ([…]) of the diluted supernatant were analyzed on a Thermo Q-Exactive mass spectrometer as described below. GI S9 Stability—No phenylmethylsulfonyl fluoride (PMSF): Similar to the procedure described above, test compounds were incubated at 2 μM with 1 mg/mL PMSF-free Intestinal S9 fractions. Samples are removed at 6 time points over the course of a 120 min experiment and the parent compound disappreance and reference compound A formation is determined by mass spectrometry.
Example K: Liquid Chromatography/Mass Spectroscopy Methods for S9 and Plasma Stability
Quantification of test compounds, Reference Compound A (S9 stability assay nucleoside metabolite), and controls was performed by analyte/internal standard peak area ratio (PAR) values measured on a Thermo Q-Exactive mass spectrometer coupled to a Dionex UltiMate 3000 HPLC with a Leap Technologies HTC PAL autosampler. The column used for analysis of test compounds and Reference Compound A was a Waters Acquity BEH C18 ([…] particle size, 2.1′50 mm). The column used for control (GS-7340) was a Thermo Hypersil GOLD ([…] particle size, 2.1′50 mm). Mobile phase A consisted of 0.1% (v/v) formic acid in water. Mobile phase B consisted of 0.1% (v/v) formic acid in acetonitrile. Elution of analytes was achieved by a series of linear gradients of acetonitrile in water containing 0.1°(v/v) formic acid. The mass spectrometer was calibrated on a weekly basis and mass tolerance of 5 ppm was used.

[4] = CC50 MT4 cytotoxicity (Cell-Titer Glo); type: cell-based; settings: human
In short: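 CC50 values are the concentrations cutting viability by 50%, fitted by non-linear regression against untreated (100%) and 2 μM puromycin (0%) controls. Cell-Titer Glo luminescence measured after 4-5 days at 37° C exposure of uninfected MT-4 and HEp-2 cells to 3-fold dilutions spanning 15 nM to 100,000 nM.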

[5] = Thermodynamic solubility in pH7 buffered solution; settings: 50 mM phosphate buffer pH7, 150 mM NaCl, ambient temperature, 24 hours
In short: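 Solid shaken 24 h at ambient temperature in 50 mM phosphate buffer pH7 with 150 mM NaCl. Supernatant diluted in 30:70 acetonitrile:water and quantified by UPLC-UV.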

[6] = tested on: SARS Coronavirus 2 recombinant with NanoLuc (SARS-CoV2-NLuc) in A549-hACE2 cells; experiment: organism not typed; type: cell-based
[7] = tested on: Caco-2 cells (clone C2BBe1); experiment: CACO-2 permeability; type: in vitro ADME; parameters: unit not given here; settings: for DM Caco2 A to B: apical to basolateral, donor pH 6.5, receiver pH 7.4; for DM Caco2 B to A: basolateral to apical
In short: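 A-to-B and B-to-A flux measured by LC-MS/MS from receiver samples taken at 1 and 2 h, with donor sampled at 0 and 2 h and recovery checked. Buffers: pH 6.5 HBSS with 200 μM BNPP on the donor side, pH 7.4 with BSA on the receiver side. Monolayers were 21-day cultures, TEER-verified, in duplicate wells.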

[8] = Stability in pH7 buffered solution; type: physicochemical; settings: pH7 phosphate buffer, 40° C., Table N2
In short: as §1

[9] = GI S9 stability - no PMSF; type: in vitro ADME; settings: pH 7.4; human intestinal S9, PMSF-free; read-out: GIS9-HUMAN-NoPMSF T1/2
In short: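 Stability was assessed by Q-Exactive LC-MS peak area ratios against internal standard, tracking loss of parent and appearance of nucleoside metabolite Reference Compound A. Incubations used 2 μM compound in 1 mg/mL intestinal S9 without PMSF (PBS, pH 7.4), with six samples taken over 120 min.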

[10] = HEp-2, 72 h, read-out: RSV Hep2 EC50

| Structure (SMILES) | EC50 ([1]; 72 h, read-out: RSV NHBE EC50) [nM] | STA Human Plasma 37 (Plasma stability) | EC50 [2, 10] [nM] | pH 2 Stability 24 h % AN [3] [% AN] | half-life at 2 µM (GI S9 stability; human, s9, pH 7.4) [min] | CC50 [4] [nM] | Sol pH 7 [5] | EC50 ([6]; 48 h; read-out: SARS-CoV2 EC50) [nM] | DM Caco2 A to B [7] | DM Caco2 B to A [7] | pH 7 Stability 24 h % AN [8] [% AN] | EC50 ([6]; 48 h, read-out: SARS-CoV2 EC50) [nM] | half-life at 2 µM [9] [min] | EC50 ([1]; read-out: EC50 RSVFluc-NHBE 384 V2) [nM] | EC50 ([2]; HEp-2, read-out: EC50 RSVFluc-Hep2 384 V2) [nM] | logD (physchem) | EC50 ([6]; A549; read-out: EC50 SARS CoV2 NanoLuc A549 384) [nM] | half-life at 2 µM (GI S9 stability; pH 7.4, human intestinal S9, read-out: GIS9 Human T1/2) [min] | CC50 ([4]; uninfected MT-4 cells, 4-5 days, read-out: MT4 CC50) [nM] |
| --- | --- | --- | --- | --- | --- | --- | --- | --- | --- | --- | --- | --- | --- | --- | --- | --- | --- | --- | --- |
| CCC(CC)COC(=O)OC[C@H]1O[C@@](C#N)(c2ccc3c(N)ncnn23)[C@H](O)[C@@H]1O [Compound 15, ((2R,3S,4R,5R)-5-(4-aminopyrrolo[2,1-f][1,2,4]triazin-7-yl)-5-cyano-3,4-dihydroxytetrahydrofuran-2-yl)methyl (2-ethylbutyl) carbonate] | 900 | 40.503 | 530 | 98 | 33.1 | > 50000 | 0.26 | 1240 | 1.46 | 12 | 97 | – | – | – | – | – | – | – | – |
| N#C[C@@]1(c2ccc3c(N)ncnn23)O[C@H](COC(=O)OC2CCCCCCC2)[C@@H](O)[C@H]1O [Compound 14, ((2R,3S,4R,5R)-5-(4-aminopyrrolo[2,1-f][1,2,4]triazin-7-yl)-5-cyano-3,4-dihydroxytetrahydrofuran-2-yl)methyl cyclooctyl carbonate] | 380 | 262.42 | 350 | 97 | 56.3 | > 50000 | – | – | 1.84 | 21.7 | 97 | 1560 | 1.07 | – | – | – | – | – | – |
| COC(C)(C)COC(=O)OC[C@H]1O[C@@](C#N)(c2ccc3c(N)ncnn23)[C@H](O)[C@@H]1O [Compound 54, ((2R,3S,4R,5R)-5-(4-aminopyrrolo[2,1-f][1,2,4]triazin-7-yl)-5-cyano-3,4-dihydroxytetrahydrofuran-2-yl)methyl (2-methoxy-2-methylpropyl) carbonate] | 1020 | 108 | 587 | – | 692 | > 50000 | – | 5690 | 0.25 | 3.8 | – | – | 4.33 | – | – | – | – | – | – |
| N#C[C@@]1(c2ccc3c(N)ncnn23)O[C@H](COC(=O)OCc2ccccc2)[C@@H](O)[C@H]1O [Compound 13, ((2R,3S,4R,5R)-5-(4-aminopyrrolo[2,1-f][1,2,4]triazin-7-yl)-5-cyano-3,4-dihydroxytetrahydrofuran-2-yl)methyl benzyl carbonate] | 1530 | 3 | 444 | 98 | 35.3 | 39100 | 0.12 | 1250 | 0.59 | 8.8 | 97 | – | – | – | – | – | – | – | – |
| COC(=O)OC[C@H]1O[C@@](C#N)(c2ccc3c(N)ncnn23)[C@H](O)[C@@H]1O [Compound 5, ((2R,3S,4R,5R)-5-(4-aminopyrrolo[2,1-f][1,2,4]triazine-7-yl)-5-cyano-3,4-dihydroxytetrahydrofuran-2-yl)methyl methyl carbonate] | 3550 | 1388.9 | 2900 | – | ≥ 789 | > 50000 | – | 13200 | – | – | – | – | 74.8 | – | – | – | – | – | – |
| COc1ccc(OC(=O)OC[C@H]2O[C@@](C#N)(c3ccc4c(N)ncnn34)[C@H](O)[C@@H]2O)cc1 [Compound 111, ((2R,3S,4R,5R)-5-(4-aminopyrrolo[2,1-f][1,2,4]triazin-7-yl)-5-cyano-3,4-dihydroxytetrahydrofuran-2-yl)methyl (4-methoxyphenyl) carbonate] | – | 35 | – | – | 53.1 | > 50000 | – | – | 0.625 | 11.22 | – | – | 3.93 | 1300 | 220 | 1.5 | 3420 | – | – |
| CCCOC(=O)OC[C@H]1O[C@@](C#N)(c2ccc3c(N)ncnn23)[C@H](O)[C@@H]1O [Compound 8, ((2R,3S,4R,5R)-5-(4-aminopyrrolo[2,1-f][1,2,4]triazin-7-yl)-5-cyano-3,4-dihydroxytetrahydrofuran-2-yl)methyl propyl carbonate] | 1840 | 11.698 | 301 | – | – | – | – | 1010 | – | – | – | – | 0.58 | – | – | – | – | 159 | > 50000 |
| CC(C)COC(=O)OC[C@H]1O[C@@](C#N)(c2ccc3c(N)ncnn23)[C@H](O)[C@@H]1O [Compound 1, ((2R,3S,4R,5R)-S-(4-aminopyrrolo[2,1-f][1,2,4]triazin-7-yl)-5-cyano-3,4-dihydroxytetrahydrofuran-2-yl)methyl isobutyl carbonate] | 2180 | 28.434 | 422 | – | 113 | > 46400 | – | 1870 | 0.275 | 3.853 | – | – | 1.45 | – | – | – | – | – | – |
| CC(C)(C)COC(=O)OC[C@H]1O[C@@](C#N)(c2ccc3c(N)ncnn23)[C@H](O)[C@@H]1O [Compound 3, ((2R,3S,4R,5R)-5-(4-aminopyrrolo[2,1-f][1,2,4]triazin-7-yl)-5-cyano-3,4-dihydroxytetrahydrofuran-2-yl)methyl neopentyl carbonate] | 1600 | 82.745 | 545 | – | 81 | > 50000 | – | 796 | 1.23 | 9.8 | – | – | 0.8 | – | – | – | – | – | – |
| CC(C)OC(=O)Nc1ncnn2c([C@]3(C#N)O[C@H](COC(=O)OC(C)C)[C@@H](OC(=O)OC(C)C)[C@H]3O)ccc12 [Compound 62, isopropyl (7-((2R,3R,4S,5R)-2-cyano-3-hydroxy-4-((isopropoxycarbonyl)oxy)-5-(((isopropoxycarbonyl)oxy)methyl)tetrahydrofuran-2-yl)pyrrolo[2,1-f][1,2,4]triazin-4-yl)carbamate] | ≥ 5000 | 488.7 | > 50000 | 61 | 31.1 | > 50000 | 0.1 | ≥ 5000 | 4.19 | 12.12 | 10 | – | – | – | – | – | – | – | – |
